What was measured:
Assay type in all cases: in vivo
[1] = system: lambsquarters (Chenopodium album); test: Test C postemergence; conditions: Chenopodium album, post-emergence, 336 h, Postemergence, scale 0 to 100, read-out: Plant response rating, Lambsquarters
Description: (§1) Seeds of plant species selected from blackgrass (Alopecurus myosuroides), Italian ryegrass (Lolium multiflorum), winter wheat (Triticum aestivum), galium (catchweed bedstraw, Galium aparine), corn (Zea mays), large (Lg) crabgrass (Digitaria sanguinalis), giant foxtail (Setaria faberii), johnsongrass (Sorghum halepense), lambsquarters (Chenopodium album), morningglory (Ipomoea coccinea), yellow nutsedge (Cyperus esculentus), pigweed (Amaranthus retroflexus), ragweed (common ragweed, Ambrosia elatior), soybean (Glycine max), barnyardgrass (Echinochloa crus-galli), oilseed rape (Brassica napus), waterhemp (common waterhemp, Amaranthus rudis), and velvetleaf (Abutilon theophrasti) were planted into a blend of loam soil and sand and treated preemergence with test chemicals formulated in a non-phytotoxic solvent mixture which included a surfactant.
(§2) At the same time, plants selected from these crop and weed species and also chickweed (common chickweed, Stellaria media), kochia (Kochia scoparia), and wild oat (Avena fatua), were planted in pots containing Redi-Earth® planting medium (Scotts Company, 14111 Scottslawn Road, Marysville, Ohio 43041) comprising spaghnum peat moss, vermiculite, wetting agent and starter nutrients and treated with postemergence applications of test chemicals formulated in the same manner. Plants ranged in height from 2 to 18 cm (1- to 4-leaf stage) for postemergence treatments. Treated plants and controls were maintained in a greenhouse for 13 to 15 days, after which time all species were compared to controls and visually evaluated. Plant response ratings, summarized in Table C, are based on a scale of 0 to 100 where 0 is no effect and 100 is complete control. A dash (-) response means no test result.

[2] = system: galium (catchweed bedstraw, Galium aparine); test: Test C postemergence; conditions: Galium, post-emergence, 336 h, Postemergence, scale 0 to 100, read-out: Plant response rating, Galium
Description: as §1, §2

soybean (Glycine max) [3] = test: Test C postemergence; conditions: Glycine max, post-emergence, Postemergence, scale 0 to 100, read-out: Plant response rating, Soybean
Description: as §1, §2

corn (Zea mays) [4] = test: Test C postemergence; conditions: Zea mays, post-emergence, 336 h, Postemergence, scale 0 to 100
Description: as §1, §2

[5] = system: waterhemp (common waterhemp, Amaranthus rudis); test: Test C postemergence; conditions: Amaranthus tuberculatus, post-emergence, Postemergence, scale 0 to 100, read-out: Plant response rating, Waterhemp
Description: as §1, §2

[6] = system: ragweed (common ragweed, Ambrosia elatior); test: Test C postemergence; conditions: Ambrosia artemisiifolia, post-emergence, 336 h, Postemergence, scale 0 to 100, read-out: Plant response rating, Ragweed
Description: as §1, §2

[7] = system: johnsongrass (Sorghum halepense); test: Test C preemergence; conditions: Sorghum halepense, pre-emergence, 336 h, preemergence, scale 0 to 100, read-out: Plant response rating, Johnsongrass
Method in brief: (§3)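 Seeded loam-sand soil (preemergence) or young potted plants of 2-18 cm (postemergence) received test chemical formulated with surfactant in a non-phytotoxic solvent. Pots were kept in the greenhouse for 13-15 days before a visual 0-100 control rating relative to controls.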

[8] = system: morningglory (Ipomoea coccinea); test: Test C preemergence; conditions: Ipomoea, pre-emergence, 336 h, preemergence, scale 0 to 100, read-out: Plant response rating, Morningglory
Method in brief: as §3

[9] = system: large (Lg) crabgrass (Digitaria sanguinalis); test: Test C preemergence; conditions: Digitaria sanguinalis, pre-emergence, 336 h, preemergence, scale 0 to 100, read-out: Plant response rating, Crabgrass, Large
Method in brief: as §3

[10] = system: lambsquarters (Chenopodium album); test: Test C preemergence; conditions: Chenopodium album, pre-emergence, 336 h, preemergence, scale 0 to 100, read-out: Plant response rating, Lambsquarters
Method in brief: as §3

[11] = system: velvetleaf (Abutilon theophrasti); test: Test C preemergence; conditions: Abutilon theophrasti, pre-emergence, preemergence, scale 0 to 100, read-out: Plant response rating, Velvetleaf
Method in brief: as §3

[12] = system: winter wheat (Triticum aestivum); test: Test C preemergence; conditions: Triticum aestivum, pre-emergence, 336 h, preemergence, scale 0 to 100, read-out: Plant response rating, Wheat
Method in brief: as §3

soybean (Glycine max) [13] = test: Test C preemergence; conditions: Glycine max, pre-emergence, preemergence, scale 0 to 100, read-out: Plant response rating, Soybean
Method in brief: as §3

[14] = system: barnyardgrass (Echinochloa crus-galli); test: Test C preemergence; conditions: Echinochloa crus-galli, pre-emergence, preemergence, scale 0 to 100, read-out: Plant response rating, Barnyardgrass
Method in brief: as §3

corn (Zea mays) [15] = test: Test C preemergence; conditions: Zea mays, pre-emergence, 336 h, preemergence, scale 0 to 100
Method in brief: as §3

[16] = system: Italian ryegrass (Lolium multiflorum); test: Test C preemergence; conditions: Lolium multiflorum, pre-emergence, 336 h, preemergence, scale 0 to 100, read-out: Plant response rating, Ryegrass, Italian
Method in brief: as §3

[17] = system: oilseed rape (Brassica napus); test: Test C preemergence; conditions: Brassica napus, pre-emergence, preemergence, scale 0 to 100, read-out: Plant response rating, Oilseed Rape
Method in brief: as §3

[18] = system: pigweed (Amaranthus retroflexus); test: Test C preemergence; conditions: Amaranthus retroflexus, pre-emergence, 336 h, preemergence, scale 0 to 100, read-out: Plant response rating, Pigweed
Method in brief: as §3

[19] = system: blackgrass (Alopecurus myosuroides); test: Test C preemergence; conditions: Alopecurus myosuroides, pre-emergence, 336 h, preemergence, scale 0 to 100, read-out: Plant response rating, Blackgrass
Method in brief: as §3

[20] = system: waterhemp (common waterhemp, Amaranthus rudis); test: Test C preemergence; conditions: Amaranthus tuberculatus, pre-emergence, preemergence, scale 0 to 100, read-out: Plant response rating, Waterhemp
Method in brief: as §3

[21] = system: giant foxtail (Setaria faberii); test: Test C preemergence; conditions: Setaria faberi, pre-emergence, 336 h, preemergence, scale 0 to 100, read-out: Plant response rating, Foxtail, Giant
Method in brief: as §3

[22] = system: yellow nutsedge (Cyperus esculentus); test: Test C preemergence; conditions: Cyperus, pre-emergence, 336 h, preemergence, scale 0 to 100, read-out: Plant response rating, Nutsedge, Yellow
Method in brief: as §3

With N#Cc1cccc(Oc2ncc(Cl)cn2)c1Oc1ncc(Cl)cn1 [Compound 3, 2,3-bis[(5-chloro-2-pyrimidinyl)oxy]benzonitrile] the pest or weed control at 31 g/ha ([1]; 31 g ai/ha) was 85%, the pest or weed control at 62 g/ha ([1]; 62 g ai/ha) was 95% and the pest or weed control at 125 g/ha ([1]; 125 g ai/ha) was 95%. It also gave a pest or weed control at 250 g/ha ([1]; 250 g ai/ha) of 100%, a pest or weed control at 31 g/ha ([2]; 31 g ai/ha) of 50% and a pest or weed control at 62 g/ha ([2]; 62 g ai/ha) of 70%. The pest or weed control at 125 g/ha ([2]; 125 g ai/ha) was 95%, the pest or weed control at 250 g/ha ([2]; 250 g ai/ha) was 95% and the plant injury at 31 g/ha (soybean (Glycine max) [3]; 31 g ai/ha) was 85%. For the same molecule, the plant injury at 62 g/ha (soybean (Glycine max) [3]; 62 g ai/ha) was 90%, the plant injury at 125 g/ha (soybean (Glycine max) [3]; 125 g ai/ha) was 95% and the plant injury at 250 g/ha (soybean (Glycine max) [3]; 250 g ai/ha) was 95%. It also gave a Corn plant response rating (crop injury, 0 = no effect, 100 = complete kill) at 31 g/ha (corn (Zea mays) [4]; 31 g ai/ha) of 10%, a Corn plant response rating (crop injury, 0 = no effect, 100 = complete kill) at 62 g/ha (corn (Zea mays) [4]; 62 g ai/ha) of 35% and a Corn plant response rating (crop injury, 0 = no effect, 100 = complete kill) at 250 g/ha (corn (Zea mays) [4]; 250 g ai/ha) of 75%. It also gave a pest or weed control at 31 g/ha ([5]; 31 g ai/ha) of 75%, a pest or weed control at 62 g/ha ([5]; 62 g ai/ha) of 75% and a pest or weed control at 125 g/ha ([5]; 125 g ai/ha) of 85%. For the same molecule, the pest or weed control at 250 g/ha ([5]; 250 g ai/ha) was 98%, the pest or weed control at 31 g/ha ([6]; 31 g ai/ha) was 50% and the pest or weed control at 62 g/ha ([6]; 62 g ai/ha) was 55%. For the same molecule, the pest or weed control at 125 g/ha ([6]; 125 g ai/ha) was 60%, the pest or weed control at 250 g/ha ([6]; 250 g ai/ha) was 85% and the pest or weed control at 31 g/ha ([7]; 31 g ai/ha) was 45%. It also gave a pest or weed control at 62 g/ha ([7]; 62 g ai/ha) of 75%, a pest or weed control at 125 g/ha ([7]; 125 g ai/ha) of 100% and a pest or weed control at 31 g/ha ([8]; 31 g ai/ha) of 45%. It also gave a pest or weed control at 62 g/ha ([8]; 62 g ai/ha) of 98%, a pest or weed control at 125 g/ha ([8]; 125 g ai/ha) of 100% and a pest or weed control at 31 g/ha ([9]; 31 g ai/ha) of 100%. It also gave a pest or weed control at 62 g/ha ([9]; 62 g ai/ha) of 100%, a pest or weed control at 125 g/ha ([9]; 125 g ai/ha) of 100% and a pest or weed control at 31 g/ha ([10]; 31 g ai/ha) of 100%. It also gave a pest or weed control at 62 g/ha ([10]; 62 g ai/ha) of 100%, a pest or weed control at 125 g/ha ([10]; 125 g ai/ha) of 100% and a pest or weed control at 31 g/ha ([11]; 31 g ai/ha) of 80%. It also gave a pest or weed control at 62 g/ha ([11]; 62 g ai/ha) of 100%, a pest or weed control at 125 g/ha ([11]; 125 g ai/ha) of 100% and a pest or weed control at 250 g/ha ([11]; 250 g ai/ha) of 100%. For the same molecule, the plant injury at 31 g/ha ([12]; 31 g ai/ha) was 5%, the plant injury at 62 g/ha ([12]; 62 g ai/ha) was 45% and the plant injury at 125 g/ha ([12]; 125 g ai/ha) was 90%. It also gave a plant injury at 250 g/ha ([12]; 250 g ai/ha) of 90%, a plant injury at 31 g/ha (soybean (Glycine max) [13]; 31 g ai/ha) of 40% and a plant injury at 62 g/ha (soybean (Glycine max) [13]; 62 g ai/ha) of 40%. It also gave a plant injury at 125 g/ha (soybean (Glycine max) [13]; 125 g ai/ha) of 85%, a plant injury at 250 g/ha (soybean (Glycine max) [13]; 250 g ai/ha) of 95% and a pest or weed control at 31 g/ha ([14]; 31 g ai/ha) of 80%. The pest or weed control at 62 g/ha ([14]; 62 g ai/ha) was 100%, the pest or weed control at 125 g/ha ([14]; 125 g ai/ha) was 100% and the pest or weed control at 250 g/ha ([14]; 250 g ai/ha) was 100%. It also gave a Corn plant response rating (crop injury, 0 = no effect, 100 = complete kill) at 31 g/ha (corn (Zea mays) [15]; 31 g ai/ha) of 20%, a Corn plant response rating (crop injury, 0 = no effect, 100 = complete kill) at 62 g/ha (corn (Zea mays) [15]; 62 g ai/ha) of 70% and a Corn plant response rating (crop injury, 0 = no effect, 100 = complete kill) at 125 g/ha (corn (Zea mays) [15]; 125 g ai/ha) of 85%. For the same molecule, the pest or weed control at 31 g/ha ([16]; 31 g ai/ha) was 5%, the pest or weed control at 62 g/ha ([16]; 62 g ai/ha) was 35% and the pest or weed control at 125 g/ha ([16]; 125 g ai/ha) was 90%. It also gave a pest or weed control at 250 g/ha ([16]; 250 g ai/ha) of 90%, a plant injury at 31 g/ha ([17]; 31 g ai/ha) of 90% and a plant injury at 62 g/ha ([17]; 62 g ai/ha) of 95%. It also gave a plant injury at 125 g/ha ([17]; 125 g ai/ha) of 95%, a plant injury at 250 g/ha ([17]; 250 g ai/ha) of 95% and a pest or weed control at 31 g/ha ([18]; 31 g ai/ha) of 100%. It also gave a pest or weed control at 62 g/ha ([18]; 62 g ai/ha) of 100%, a pest or weed control at 125 g/ha ([18]; 125 g ai/ha) of 100% and a pest or weed control at 31 g/ha ([19]; 31 g ai/ha) of 70%. For the same molecule, the pest or weed control at 62 g/ha ([19]; 62 g ai/ha) was 90%, the pest or weed control at 125 g/ha ([19]; 125 g ai/ha) was 90% and the pest or weed control at 31 g/ha ([20]; 31 g ai/ha) was 100%. It also gave a pest or weed control at 62 g/ha ([20]; 62 g ai/ha) of 100%, a pest or weed control at 125 g/ha ([20]; 125 g ai/ha) of 100% and a pest or weed control at 250 g/ha ([20]; 250 g ai/ha) of 100%. For the same molecule, the pest or weed control at 31 g/ha ([21]; 31 g ai/ha) was 100%, the pest or weed control at 62 g/ha ([21]; 62 g ai/ha) was 100% and the pest or weed control at 125 g/ha ([21]; 125 g ai/ha) was 100%. For the same molecule, the pest or weed control at 31 g/ha ([22]; 31 g ai/ha) was 5%, the pest or weed control at 62 g/ha ([22]; 62 g ai/ha) was 15% and the pest or weed control at 125 g/ha ([22]; 125 g ai/ha) was 55%.

Reference: patent US20170190671A1, “BIS(ARYL)CATECHOL DERIVATIVES AS HERBICIDES” (E I DU PONT DE NEMOURS AND COMPANY, priority 2014, published 2017)
